Literature values, collected in patent US6632827B2 (Sepracor Inc., priority 1996, dated 2003).

Assays:
5HT4 receptors = target: T1, 5HT4 receptors (Mus musculus, UniProt P97288); settings: cultured mouse embryo colliculi neurons; read-out: EC50 concentration, cAMP generation as endpoint for 5HT4 activity
T1 construct: Using cultured mouse embryo colliculi neurons and cAMP generation as an endpoint for designating 5HT4 activity; host or cells: cultured mouse embryo colliculi neurons

[1] = co-administered ketoconazole
beta-adrenergic = settings: S-enantiomer vs R-enantiomer

T1 sequence (P97288 whole entry): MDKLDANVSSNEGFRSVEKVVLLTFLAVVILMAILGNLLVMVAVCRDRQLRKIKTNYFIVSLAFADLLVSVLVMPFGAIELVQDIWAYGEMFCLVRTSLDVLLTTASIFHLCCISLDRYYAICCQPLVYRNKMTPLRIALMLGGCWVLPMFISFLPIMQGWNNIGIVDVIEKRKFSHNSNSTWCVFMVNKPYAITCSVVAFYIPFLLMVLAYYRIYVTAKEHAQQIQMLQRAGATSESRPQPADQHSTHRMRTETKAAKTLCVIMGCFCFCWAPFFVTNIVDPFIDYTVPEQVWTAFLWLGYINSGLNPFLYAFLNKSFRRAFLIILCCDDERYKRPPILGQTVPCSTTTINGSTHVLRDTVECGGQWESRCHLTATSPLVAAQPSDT

## COc1cc(N)c(Cl)cc1C(=O)N[C@H]1CCN(CCCOc2ccc(F)cc2)C[C@H]1OC (racemic) [(±) Cisapride, cis-4-amino-5-chloro-N-[1-[3-(4-fluorophenoxy)propyl]-3-methoxy-4-piperidinyl]-2-methoxybenzamide]
5HT4 receptors
  EC50: 70 nM
Oral administration to humans
  Bioavailability of the parent compound: 40-50%
Oxidative N-dealkylation or aromatic hydroxylation
  Fraction of dose metabolized: More than 90%
[1]
  Increase in steady-state plasma levels: 8 fold

## CC(C)NCC(O)COc1cccc2ccccc12 (stereo not drawn) [propranolol]
beta-adrenergic
  Potency of S-enantiomer relative to R-enantiomer: 100 times

## COc1cc(N)c(Cl)cc1C(=O)NC1CCNCC1OC (racemic) [(±) Norcisapride, 4-amino-5-chloro-N-(3-methoxy-4-piperidinyl)-2 methoxybenzamide]
Urine of humans 72 hours after dosing of cisapride
  Share of the drug found in urine: 50-80%
